Laboratory results as given in patent US20230201244A1, “COMPOSITIONS AND METHODS FOR PREVENTING AND/OR TREATING MICROBIAL INFECTIONS” (University of Louisville Research Foundation, Inc., priority 2020, published 2023).

Legend:
NF-κB (p65) = assay type: in vivo, C57BL/6 mice; details: inhibitor daily for three days at 5 mg/kg/d before intratracheal exosomes
TNFα, IL-1β and IL-6 = assay: ELISA of inflammatory cytokines in lung or lung macrophages of mice given exosomes^Nsp12Nsp13; assay type: in vivo, C57BL/6 mice; details: lung macrophages, TNFα and IL-6 ELISA, i.p. pretreatment, FIG. 10B
[1] = test system: lung epithelial cells (EpCAM^+); assay: Lung apoptosis in mice given exosomes^Nsp12Nsp13 (TUNEL, Annexin V flow cytometry of EpCAM+ cells); assay type: in vivo, C57BL/6 mice; details: inhibitor pretreatment
[2] = test system: lung epithelial A549 cells; assay: Apoptosis of A549 cells by flow cytometry (Annexin V/7-AAD); assay type: cell-based, human

Cc1ccc(S(=O)(=O)/C=C/C#N)cc1 [Bay 11-7821]
lung macrophage NF-κB activity induced by exosomes^Nsp12Nsp13 (NF-κB (p65)): inhibited | inflammatory cytokines induced by exosomes^Nsp12Nsp13 (TNFα, IL-1β and IL-6): attenuation of inflammatory cytokines | induction of lung epithelial cell (EpCAM+) apoptosis ([1]; Annexin V flow cytometry, FIG. 5E): blocked | lung apoptosis induced by exosomes^Nsp12Nsp13 (TUNEL staining) ([1]; lung sections, FIG. 5D): reduced | A549 cell apoptosis on direct exposure ([2]; A549 cells presented to Nsp12/13, Bay 11-7821, FIG. 5F top panel): little influence | apoptosis of lung epithelial cells induced by supernatant from U937 cells treated with exosomes^Nsp12Nsp13 ([2]; A549 cells, antibodies 10 ng/ml, FIG. 5F middle and bottom panel): inhibited
